# Measurements as given in the supplement of paper PMC11208160.
# Assay: recombinant barcode read abundance after kanamycin selection (control-corrected) (log10(CPM+1)); higher = more efficient recombination; sequences stand for … in AGTGCAGAGAAAATCGGCCAGTTTTCTCTGCCTGCAGTCCGCATGCCGT…AGATTTATGCAGCGGACTGCCTTTCTCCCAAAGTGATAAACCGGACAGTATCATGGACCGGTTTTCCCGGTAATCCGTATTTGCAAGGTTGGTTTCACT; site = the 11-nt target
# How it was run: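 Recombination efficiency was calculated from barcode counts at recombinant junctions, normalized to counts per million, averaged and corrected by the control. Each value is given as log10(CPM+1). The constructs were Gibson-cloned oligos (promoter, target, barcode, J23119-driven first 104 bridge RNA bases) in a vector with the remaining 73 bp and a T7-inducible recombinase, co-electroporated into E. coli with a donor plasmid and plated in duplicate on chloramphenicol/ampicillin LB agar (control) or chloramphenicol/ampicillin/kanamycin with 0.1 mM IPTG.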
# 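Also: IS621 recombinase and bridge RNA in Escherichia coli cells.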
row,Sequence,recombinant barcode read abundance (log10)
1,CCTAACCCTTGGGTTCTAACCTGTTGCGT (site CCTAAGCCTAC),0.0306
2,CCTAACCCTTGGGTTCTAACCTGTTGCGT (site CCTAATCCTAC),0.381
3,CCTAAGACTTGGGTTCTAACCTGTTGCCA (site CCTAAGACTAG),0.08
4,CCTAAGACTTGGGTTCTAACCTGTTGCCA (site CCTAAGACTCG),0.133
5,CCTAAGACTTGGGTTCTAACCTGTTGCCA (site CCTAAGACTGG),0.0159
6,CCTAAGACTTGGGTTCTAACCTGTTGCCA (site CCTAAGACTTG),0
7,CCTAAGACTTGGGTTCTAACCTGTTGCCT (site CCTAAGACTAG),0.595
8,CCTAAGACTTGGGTTCTAACCTGTTGCCT (site CCTAAGACTCG),0.0786
9,CCTAAGACTTGGGTTCTAACCTGTTGCCT (site CCTAAGACTGG),0.0702
10,CCTAAGACTTGGGTTCTAACCTGTTGCCT (site CCTAAGACTTG),0.0542
11,CCTAAGCCTTGGGTTCTAACCTGTTGCAT (site CCTAAGCCTAT),0.859
12,CCTAAGCCTTGGGTTCTAACCTGTTGCAT (site GGACGCACTCC),0.111
13,CCTAATACTTGGGTTCTAACCTGTTGCTT (site ACTAATCCTAA),0.107
14,CCTAATACTTGGGTTCTAACCTGTTGCTT (site CCTAATACTAA),0.155
15,CCTACATCTTGGGTTCTAACCTGTTGCAT (site CCTACATCTAT),0.252
16,CCTACATCTTGGGTTCTAACCTGTTGCAT (site CCTACATCTTA),0.0552
17,CCTACATCTTGGGTTCTAACCTGTTGCCT (site CCTACAACTAG),0.124
18,CCTACATCTTGGGTTCTAACCTGTTGCCT (site CCTACACCTAG),0.115

row,Sequence,recombinant barcode read abundance (log10)
1,CCTACATCTTGGGTTCTAACCTGTTGCCT (site CCTACAGCTAG),0.0484
2,CCTACATCTTGGGTTCTAACCTGTTGCCT (site CCTACATCTAG),0.123
3,CCTACTCCTTGGGTTCTAACCTGTTGCAG (site CCTACTACTCG),0.0435
4,CCTACTCCTTGGGTTCTAACCTGTTGCAG (site CCTACTCCTCT),0.0147
5,CCTATCCCTTGGGTTCTAACCTGTTGCCT (site CCTATCCCTAG),1.32
6,CCTATCCCTTGGGTTCTAACCTGTTGCCT (site CCTTTCACTAG),0.311
7,CCTCAATCTTGGGTTCTAACCTGTTGCTT (site CCTCAATCTAA),0.224
8,CCTCAATCTTGGGTTCTAACCTGTTGCTT (site CCTCACTCTAA),0.0745
9,CCTCAATCTTGGGTTCTAACCTGTTGCTT (site CCTCAGTCTAA),0.0516
10,CCTCAATCTTGGGTTCTAACCTGTTGCTT (site CCTCATTCTAA),0.144
11,CCTCACTCTTGGGTTCTAACCTGTTGCTT (site CCTCAATCTAA),0.058
12,CCTCACTCTTGGGTTCTAACCTGTTGCTT (site CCTCACTCTAA),1.2
13,CCTCACTCTTGGGTTCTAACCTGTTGCTT (site CCTCAGTCTAA),0.00592
14,CCTCACTCTTGGGTTCTAACCTGTTGCTT (site CCTCATTCTAA),0.0602
15,CCTCAGACTTGGGTTCTAACCTGTTGCGA (site CCTCAGACTTC),2.79
16,CCTCAGACTTGGGTTCTAACCTGTTGCGA (site CTTCAGACTTA),0.0629
17,CCTCAGGCTTGGGTTCTAACCTGTTGCCA (site CCTCAGGCTAG),0.312
18,CCTCAGGCTTGGGTTCTAACCTGTTGCCA (site CCTCAGGCTCG),0.0454
